This is an account of results in patent US10385057B2, “Pyrazole compounds and methods of making and using same” (Lundbeck La Jolla Research Center, Inc., priority 2015, dated 2019).

For orientation: IC50 means the concentration at which inhibition is half-maximal. Read a high IC50 as lower potency.

Experiment [1] deals with T1, FAAH (Mus musculus, UniProt O08914).
T1 construct: mouse brain membrane fraction or cell lysates for mouse assays; from tissue
T1 sequence (O08914 1-579): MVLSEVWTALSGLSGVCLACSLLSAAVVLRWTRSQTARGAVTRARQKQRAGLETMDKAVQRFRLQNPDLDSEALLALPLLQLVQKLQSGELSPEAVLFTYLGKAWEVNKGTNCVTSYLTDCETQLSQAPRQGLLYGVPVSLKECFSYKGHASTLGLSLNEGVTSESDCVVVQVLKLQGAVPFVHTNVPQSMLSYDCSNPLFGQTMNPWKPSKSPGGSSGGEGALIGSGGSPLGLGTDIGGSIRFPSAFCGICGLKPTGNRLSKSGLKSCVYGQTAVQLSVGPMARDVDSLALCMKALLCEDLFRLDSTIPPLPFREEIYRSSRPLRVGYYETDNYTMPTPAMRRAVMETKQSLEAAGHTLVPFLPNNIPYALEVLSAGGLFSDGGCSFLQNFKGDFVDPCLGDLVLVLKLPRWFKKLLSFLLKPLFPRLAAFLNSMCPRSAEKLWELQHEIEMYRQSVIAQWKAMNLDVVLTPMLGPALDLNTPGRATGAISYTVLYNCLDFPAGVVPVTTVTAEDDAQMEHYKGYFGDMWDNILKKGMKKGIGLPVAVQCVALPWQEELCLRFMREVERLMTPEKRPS
Put plainly: In vitro competitive activity-based protein profiling, mouse FAAH. It counts as biochemical. Conditions: for inhibition at 1 µM: read-out: FAAH % inh. 1 μM (mouse). Put shortly:
(§1)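 Activity measured as fluorescent gel-band intensity of MAGL and FAAH after SDS-PAGE. Before labelling with FP-Rh or HT-01 (30 min, 37 °C), proteomes at 1.0 mg/mL (mouse brain membrane or lysates; human prefrontal cortex or cell membranes) were exposed to varying inhibitor concentrations for 30 min at 37 °C.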

Experiment [2] addresses T2, MAGL (Mus musculus, UniProt O35678).
T2 construct: mouse brain membrane fraction or cell lysates for mouse assays; from tissue
T2 sequence (O35678 1-303): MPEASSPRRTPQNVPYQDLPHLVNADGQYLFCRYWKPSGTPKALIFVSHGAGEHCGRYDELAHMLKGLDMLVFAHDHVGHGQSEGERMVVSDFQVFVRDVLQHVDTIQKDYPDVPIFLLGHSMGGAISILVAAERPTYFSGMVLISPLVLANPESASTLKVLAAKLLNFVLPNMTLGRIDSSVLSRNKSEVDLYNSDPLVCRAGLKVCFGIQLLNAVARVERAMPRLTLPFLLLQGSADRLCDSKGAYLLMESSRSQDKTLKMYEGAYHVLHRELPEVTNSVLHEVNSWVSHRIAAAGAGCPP
Description: In vitro competitive activity-based protein profiling, mouse MAGL. It counts as biochemical. Conditions: for inhibition at 1 µM: read-out: MAGL % inh. 1 μM (mouse). Put shortly:
as §1

Bounds are passed on as bounds.

In the case of `O=C(c1cnn(C(=O)N2CC3CN(Cc4ccc(N5CCOCC5)cc4C(F)(F)F)CC3C2)c1)N1CCOCC1` (centres unmarked) [Example 13, (4-(morpholine-4-carbonyl)-1H-pyrazol-1-yl)(5-(4-morpholino-2-(trifluoromethyl)benzyl)hexahydropyrrolo[3,4-c]pyrrol-2(1H)-yl)methanone], the inhibition at 1 µM in experiment [1] and in experiment [2] (1 μM) was no less than 75% throughout.

`CN(Cc1cc(N2CCCC2)cc(C(F)(F)F)c1)[C@@H]1C[C@@H]2CN(C(=O)n3cc(C(N)=O)cn3)C[C@@H]2C1` [Example 222, 1-(cis-5-(methyl(3-(pyrrolidin-1-yl)-5-(trifluoromethyl)benzyl)amino)octahydrocyclopenta[c]pyrrole-2-carbonyl)-1H-pyrazole-4-carboxamide]: the inhibition at 1 µM in experiment [1] and in experiment [2] (1 μM) was no less than 75% throughout.

Consider `O=C(N1CCC2(CCN(Cc3cccc(Cl)c3)C2)C1)n1cc(Cl)cn1` (single isomer, unassigned) [Example 133, (4-chloro-1H-pyrazole-1-carbonyl)-7-[(3-chlorophenyl)methyl]-2,7-diazaspiro[4.4]nonane], for which the IC50 in experiment [1] is no more than 100 nM; in experiment [2] it was 100 to 1000 nM.

Consider `O=C(N1C[C@H]2C[C@H](NCc3ccc(Cl)cc3)C[C@H]2C1)n1cc(Cl)cn1` [Example 73, (4-chloro-1H-pyrazol-1-yl)(trans-5-((4-chlorobenzyl)amino)hexahydrocyclopenta[c]pyrrol-2(1H)-yl)methanone], for which the figures for the IC50 in experiment [1] and in experiment [2] were no more than 100 nM and 100 to 1000 nM, respectively. Moreover, the inhibition at 1 µM in experiment [1] and in experiment [2] (1 μM) was no less than 75% each time.

Regarding `O=C(c1cnn(C(=O)N2CCC3(CCN(Cc4cc(Cl)cc(C(F)(F)F)c4)C3)C2)c1)N1CCCC1` (centres unmarked) [Example 34, (1-(7-(3-chloro-5-(trifluoromethyl)benzyl)-2,7-diazaspiro[4.4]nonane-2-carbonyl)-1H-pyrazol-4-yl)(pyrrolidin-1-yl)methanone], the inhibition at 1 µM in experiment [1] and in experiment [2] (1 μM) was no less than 75% throughout.

Turning to `O=C(N1CC2CN(Cc3ccc(C(F)(F)F)cc3)CC2C1)n1cc(Cl)cn1` (centres unmarked) [Example 120, (4-chloro-1H-pyrazol-1-yl)(5-(4-(trifluoromethyl)benzyl)hexahydropyrrolo[3,4-c]pyrrol-2(1H)-yl)methanone], the IC50 in experiment [1] and in experiment [2] was no more than 100 nM throughout. Besides, the inhibition at 1 µM in experiment [1] and in experiment [2] (1 μM) was no less than 75% in each case.

Turning to `O=C(c1cnn(C(=O)N2CC3CN(Cc4ccc(Oc5ccc(Cl)cc5)cc4)CC3C2)c1)N1CCCC1` (centres unmarked) [Example 189, (5-(4-(4-chlorophenoxy)benzyl)hexahydropyrrolo[3,4-c]pyrrol-2(1H)-yl)(4-(pyrrolidine-1-carbonyl)-1H-pyrazol-1-yl)methanone], the IC50 is no more than 100 nM in experiment [1] and 100 to 1000 nM in experiment [2]. The inhibition at 1 µM was no less than 75% in experiment [1] and 50 to 75% in experiment [2] (1 μM).

Take `CN(Cc1ccc(Oc2cccnc2)cc1)[C@@H]1C[C@@H]2CN(C(=O)n3cc(Cl)cn3)C[C@@H]2C1` [Example 160, (4-chloro-1H-pyrazol-1-yl)(cis-5-(methyl(4-(pyridin-3-yloxy)benzyl)amino)hexahydrocyclopenta[c]pyrrol-2(1H)-yl)methanone]: the inhibition at 1 µM in experiment [1] and in experiment [2] (1 μM) was no less than 75% each time.

As to `CN(Cc1cc(N2CCCC2)cc(C(F)(F)F)c1)[C@H]1C[C@@H]2CN(C(=O)n3cc(C(N)=O)cn3)C[C@@H]2C1` [Example 217, 1-(trans-5-(methyl(3-(pyrroldin-1-yl)-5-(trifluoromethyl)benzyl)amino)octahydrocyclopenta[c]pyrrole-2-carbonyl)-1H-pyrazole-4-carboxamide], the inhibition at 1 µM in experiment [1] and in experiment [2] (1 μM) was no less than 75% in each case.

In the case of `O=C(N1C[C@H]2C[C@H](NCc3ccccc3Cl)C[C@H]2C1)n1cc(Cl)cn1` [Example 64, (4-chloro-1H-pyrazol-1-yl)(trans-5-((2-chlorobenzyl)amino)hexahydrocyclopenta[c]pyrrol-2(1H)-yl)methanone], the IC50 in experiment [1] and in experiment [2] was no more than 100 nM throughout. In addition, the inhibition at 1 µM in experiment [1] and in experiment [2] (1 μM) was no less than 75% throughout.

In the case of `CN(Cc1cccc(Cl)c1)[C@@H]1C[C@@H]2CN(C(=O)n3cc(Cl)cn3)C[C@@H]2C1` [Example 65, (4-chloro-1H-pyrazol-1-yl)(cis-5-((3-chlorobenzyl)(methyl)amino)hexahydrocyclopenta[c]pyrrol-2(1H)-yl)methanone], the IC50 in experiment [1] and in experiment [2] was no more than 100 nM in each case. Moreover, the inhibition at 1 µM in experiment [1] and in experiment [2] (1 μM) was no less than 75% throughout.

Consider `O=C(N1CCC2(CCN(Cc3ccc(F)cc3)C2)C1)n1cc(C(F)(F)F)cn1` (centres unmarked) [Example 166, (7-(4-fluorobenzyl)-2,7-diazaspiro[4.4]nonan-2-yl)(4-(trifluoromethyl)-1H-pyrazol-1-yl)methanone], for which the IC50 in experiment [1] and in experiment [2] was 100 to 1000 nM each time. Besides, the inhibition at 1 µM in experiment [1] and in experiment [2] (1 μM) was no less than 75% throughout.

Take `COc1ccc(CN2CCC3(CCN(C(=O)n4cc(C(F)(F)F)cn4)C3)C2)cc1` (centres unmarked) [Example 167, (7-(4-methoxybenzyl)-2,7-diazaspiro[4.4]nonan-2-yl)(4-(trifluoromethyl)-1H-pyrazol-1-yl)methanone]: the IC50 in experiment [1] and in experiment [2] was 100 to 1000 nM in each case. Moreover, the inhibition at 1 µM in experiment [1] and in experiment [2] (1 μM) was no less than 75% each time.

On to `CNC(=O)c1cnn(C(=O)N2CC3CN(Cc4ccc(Cl)cc4)CC3C2)c1` (centres unmarked) [Example 17, 1-(5-(4-chlorobenzyl)octahydropyrrolo[3,4-c]pyrrole-2-carbonyl)-N-methyl-1H-pyrazole-4-carboxamide], for which the IC50 in experiment [1] was no more than 100 nM; in experiment [2] it was 1000 to 10000 nM. Further, the results for the inhibition at 1 µM in experiment [1] and in experiment [2] (1 μM) were no less than 75% and 50 to 75%, respectively.

Turning to `CN(Cc1cccc(N2CCOCC2)c1)[C@H]1C[C@@H]2CN(C(=O)n3cc(Cl)cn3)C[C@@H]2C1` [Example 82, (4-chloro-1H-pyrazol-1-yl)(trans-5-(methyl(3-morpholinobenzyl)amino)hexahydrocyclopenta[c]pyrrol-2(1H)-yl)methanone], the IC50 in experiment [1] and in experiment [2] was 100 to 1000 nM each time. For the same compound, the inhibition at 1 µM in experiment [1] and in experiment [2] (1 μM) was no less than 75% in each case.

As to `NC(=O)c1cnn(C(=O)N2CCC3(CCN(Cc4ccc(N5CCOCC5)cc4Cl)C3)C2)c1` (centres unmarked) [Example 204, 1-(7-(2-chloro-4-morpholinobenzyl)-2,7-diazaspiro[4.4]nonane-2-carbonyl)-1H-pyrazole-4-carboxamide], the inhibition at 1 µM in experiment [1] and in experiment [2] (1 μM) was no less than 75% in each case.

In the case of `Cc1cc(N2CCOCC2)ccc1CN1CCC2(CCN(C(=O)n3cc(Cl)cn3)C2)C1` (centres unmarked) [Example 138, (4-chloro-1H-pyrazol-1-yl)(7-(2-methyl-4-morpholinobenzyl)-2,7-diazaspiro[4.4]nonan-2-yl)methanone], the figures for the IC50 in experiment [1] and in experiment [2] were no more than 100 nM and 100 to 1000 nM, respectively. The inhibition at 1 µM in experiment [1] and in experiment [2] (1 μM) was no less than 75% each time.

Regarding `O=C(N1CCC2(CCN(Cc3ccccc3F)C2)C1)n1cc(C(F)(F)F)cn1` (centres unmarked) [Example 177, (7-(2-fluorobenzyl)-2,7-diazaspiro[4.4]nonan-2-yl)(4-(trifluoromethyl)-1H-pyrazol-1-yl)methanone], the inhibition at 1 µM in experiment [1] and in experiment [2] (1 μM) was no less than 75% throughout.

In the case of `Cc1ccccc1CN1CCC2(CCN(C(=O)n3cc(C(F)(F)F)cn3)C2)C1` (centres unmarked) [Example 178, (7-(2-methylbenzyl)-2,7-diazaspiro[4.4]nonan-2-yl)(4-(trifluoromethyl)-1H-pyrazol-1-yl)methanone], the IC50 in experiment [1] and in experiment [2] was 100 to 1000 nM each time. In addition, the inhibition at 1 µM in experiment [1] and in experiment [2] (1 μM) was no less than 75% each time.

For `CN(Cc1ccccc1Cl)[C@@H]1C[C@@H]2CN(C(=O)n3cc(C(=O)N4CCCC4)cn3)C[C@@H]2C1` [Example 89, (cis-5-((2-chlorobenzyl)(methyl)amino)hexahydrocyclopenta[c]pyrrol-2(1H)-yl)(4-(pyrrolidine-1-carbonyl)-1H-pyrazol-1-yl)methanone], the inhibition at 1 µM in experiment [1] is no less than 75%. The “MAGL % inh. 1 μM (mouse)” value in experiment [2] (1 μM) was “C (% inhibition greater than or equal to 25% and less than 50%)”.
